Consider two molecules from publication PMC6363832 (Cancer epidemiology, biomarkers & prevention : a …, 2018).

Common to all, as to assay type: biochemical
What all share (conditions): NADPH regenerating system, 50 mM potassium phosphate, 37 °C; HEK293 microsomes

Assay [1] concerns the target T1, wt FMO4 (Homo sapiens, UniProt P31512).
T1 sequence (P31512 1-558): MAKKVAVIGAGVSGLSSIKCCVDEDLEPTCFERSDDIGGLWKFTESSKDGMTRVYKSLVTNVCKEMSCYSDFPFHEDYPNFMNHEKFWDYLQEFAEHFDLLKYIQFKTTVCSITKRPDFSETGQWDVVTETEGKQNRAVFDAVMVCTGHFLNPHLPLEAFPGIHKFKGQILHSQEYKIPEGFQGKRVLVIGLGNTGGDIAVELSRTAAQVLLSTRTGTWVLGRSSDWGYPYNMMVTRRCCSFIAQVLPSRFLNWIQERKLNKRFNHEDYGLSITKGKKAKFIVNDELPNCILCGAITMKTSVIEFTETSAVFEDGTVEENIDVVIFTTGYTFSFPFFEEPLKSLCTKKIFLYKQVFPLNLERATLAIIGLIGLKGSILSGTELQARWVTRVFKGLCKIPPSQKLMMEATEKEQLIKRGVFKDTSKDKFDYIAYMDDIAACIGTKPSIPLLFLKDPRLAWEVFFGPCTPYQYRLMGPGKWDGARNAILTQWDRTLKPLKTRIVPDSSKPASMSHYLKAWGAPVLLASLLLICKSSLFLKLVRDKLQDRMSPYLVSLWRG
In words: benzydamine N-oxidation, UPLC-MS/MS.

Assay [2] deals with T2, wt FMO5 (Homo sapiens, UniProt P49326).
T2 sequence (P49326 1-533): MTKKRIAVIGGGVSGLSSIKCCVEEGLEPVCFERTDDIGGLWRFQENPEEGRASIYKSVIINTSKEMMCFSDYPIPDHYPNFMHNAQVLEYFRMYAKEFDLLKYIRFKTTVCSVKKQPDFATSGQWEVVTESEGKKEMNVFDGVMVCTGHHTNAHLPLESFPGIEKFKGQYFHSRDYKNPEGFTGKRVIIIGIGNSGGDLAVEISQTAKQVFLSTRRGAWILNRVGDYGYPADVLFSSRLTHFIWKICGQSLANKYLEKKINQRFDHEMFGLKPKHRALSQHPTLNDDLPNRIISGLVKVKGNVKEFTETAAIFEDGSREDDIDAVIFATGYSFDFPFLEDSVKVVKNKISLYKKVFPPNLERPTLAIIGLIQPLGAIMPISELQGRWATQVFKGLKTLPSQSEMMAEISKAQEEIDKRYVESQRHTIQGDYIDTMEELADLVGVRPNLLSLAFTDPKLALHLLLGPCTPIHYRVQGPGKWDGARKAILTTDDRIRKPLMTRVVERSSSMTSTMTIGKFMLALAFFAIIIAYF
The assay is described as follows: benzydamine N-oxidation, UPLC-MS/MS.

Assay [3] concerns the target T1, wt FMO4. The assay is described as follows: nicotine-N'-oxide formation, UPLC-MS/MS.
The target of assay [4] is T2, wt FMO5. The assay is described as follows: nicotine-N'-oxide formation, UPLC-MS/MS.

As to `CN(C)CCCOc1nn(Cc2ccccc2)c2ccccc12` [benzydamine], the Km at wt FMO4 [1] was over 3 mM; at wt FMO5 [2], over 2 mM.

As for `CN1CCC[C@H]1c1cccnc1` [compound 4, nicotine], the Km on wt FMO4 [3] and on wt FMO5 [4] was over 5 mM each time.

A word on the Km: it is the concentration of substrate that gives half-maximal velocity.
